Assay results as given in ChEMBL document CHEMBL1201862, “PubChem BioAssay data set” (2004).
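Following 48 hours of exposure in 96-well plates, responses at five concentrations were used to interpolate endpoints linearly. Here, GI50 denotes the concentration required for 50% inhibition of growth.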 Calls of active or inactive are those of the source. Rule as the data show it: active = GI50 up to about 1.1 µM and inactive = higher.

Tests used:
Experiment in all cases: NCI anticancer screen, dose series, 48 h
786-0 = test system: 786-0
A498 = test system: A498
A549 = test system: A549
ACHN = test system: ACHN
CAKI-1 = test system: CAKI-1
CCRF-CEM = test system: CCRF-CEM
COLO 205 = test system: COLO 205
DLD-1 = test system: DLD-1
DMS-114 = test system: DMS-114
DMS-273 = test system: DMS-273
EKVX = test system: EKVX
HCC 2998 = test system: HCC 2998
HCT-116 = test system: HCT-116
HCT-15 = test system: HCT-15
HL-60 = test system: HL-60
HOP-18 = test system: HOP-18
HOP-92 = test system: HOP-92
HT-29 = test system: HT-29
IGROV-1 = test system: IGROV-1
K562 = test system: K562
KM-20L2 = test system: KM-20L2
KM12 = test system: KM12
LOX IMVI = test system: LOX IMVI
LXFL 529 = test system: LXFL 529
M14 = test system: M14
M19-MEL = test system: M19-MEL
MOLT-4 = test system: MOLT-4
Malme-3M = test system: Malme-3M
NCI-H226 = test system: NCI-H226
NCI-H23 = test system: NCI-H23
NCI-H460 = test system: NCI-H460
NCI-H522 = test system: NCI-H522
OVCAR-3 = test system: OVCAR-3
OVCAR-4 = test system: OVCAR-4
OVCAR-5 = test system: OVCAR-5
OVCAR-8 = test system: OVCAR-8
RPMI-8226 = test system: RPMI-8226
RXF 393 = test system: RXF 393
RXF 631 = test system: RXF 631
SF-295 = test system: SF-295
SF-539 = test system: SF-539
SK-MEL-28 = test system: SK-MEL-28
SK-MEL-2 = test system: SK-MEL-2
SK-MEL-5 = test system: SK-MEL-5
SK-OV-3 = test system: SK-OV-3
SN12C = test system: SN12C
SNB-19 = test system: SNB-19
SNB-75 = test system: SNB-75
SNB-78 = test system: SNB-78
SR = test system: SR
SW-620 = test system: SW-620
TK-10 = test system: TK-10
U-251 = test system: U-251
UACC-257 = test system: UACC-257
UACC-62 = test system: UACC-62
UO-31 = test system: UO-31
XF498 = test system: XF498

C#CCNC(=O)NCCCCC(NC(=O)OCc1ccccc1)C(=O)OCc1ccccc1 (configuration not stated)
GI50 (786-0): > 58.1 µM (inactive) | GI50 (A498): > 100 µM (inactive) | GI50 (A549): 72.4 µM (inactive) | GI50 (ACHN): 27.7 µM (inactive) | GI50 (CAKI-1): > 59.4 µM (inactive) | GI50 (CCRF-CEM): 18.5 µM (inactive) | GI50 (COLO 205): 17.7 µM (inactive) | GI50 (DLD-1): 49 µM (inactive) | GI50 (DMS-114): 27.7 µM (inactive) | GI50 (DMS-273): > 71.3 µM (inactive) | GI50 (EKVX): > 100 µM (inactive) | GI50 (HCC 2998): 37.9 µM (inactive) | GI50 (HCT-116): > 68.2 µM (inactive) | GI50 (HCT-15): > 86.5 µM | GI50 (HL-60): 18 µM (inactive) | GI50 (HOP-18): > 100 µM (inactive) | GI50 (HOP-92): > 72.4 µM (inactive) | GI50 (HT-29): 75.3 µM (inactive) | GI50 (IGROV-1): > 100 µM (inactive) | GI50 (K562): > 66.2 µM (inactive) | GI50 (KM-20L2): > 100 µM (inactive) | GI50 (KM12): 29.8 µM (inactive) | GI50 (LOX IMVI): 39.1 µM (inactive) | GI50 (LXFL 529): 40.3 µM (inactive) | GI50 (M14): 37.6 µM (inactive) | GI50 (M19-MEL): 38.7 µM (inactive) | GI50 (MOLT-4): 22.2 µM (inactive) | GI50 (Malme-3M): > 100 µM (inactive) | GI50 (NCI-H226): > 100 µM (inactive) | GI50 (NCI-H23): > 64.3 µM (inactive) | GI50 (NCI-H460): 52.2 µM (inactive) | GI50 (NCI-H522): 22.3 µM (inactive) | GI50 (OVCAR-3): 59.7 µM (inactive) | GI50 (OVCAR-4): > 78.3 µM (inactive) | GI50 (OVCAR-5): > 100 µM (inactive) | GI50 (OVCAR-8): 48.4 µM (inactive) | GI50 (RPMI-8226): 21.2 µM (inactive) | GI50 (RXF 393): > 100 µM (inactive) | GI50 (RXF 631): > 58.5 µM (inactive) | GI50 (SF-295): > 100 µM (inactive) | GI50 (SF-539): > 60.5 µM (inactive) | GI50 (SK-MEL-28): > 100 µM (inactive) | GI50 (SK-MEL-2): > 96.2 µM (inactive) | GI50 (SK-MEL-5): > 100 µM (inactive) | GI50 (SK-OV-3): > 100 µM (inactive) | GI50 (SN12C): > 83.8 µM (inactive) | GI50 (SNB-19): > 100 µM (inactive) | GI50 (SNB-75): > 72.4 µM (inactive) | GI50 (SNB-78): > 80.9 µM (inactive) | GI50 (SR): 45 µM (inactive) | GI50 (SW-620): 72.8 µM (inactive) | GI50 (TK-10): > 100 µM (inactive) | GI50 (U-251): > 64.6 µM (inactive) | GI50 (UACC-257): 33.2 µM (inactive) | GI50 (UACC-62): 63.5 µM (inactive) | GI50 (UO-31): > 48.4 µM (inactive) | GI50 (XF498): 18.5 µM (inactive)
